Data set [1] concerns wild-type control and CF (F508Δ/F508Δ) HNEC cultures. The data set is described as follows: Combination of semagacestat and CFTR modulator, MCC differentiation. The data set is classed as cell-based. Particulars: human CF samples with different CFTR mutations. How it is done: To assess the effects of combining semagacestat and CFTR modulator treatment, wild-type control and CF (F508Δ/F508Δ) HNEC cultures were grown to maturity with or without semagacestat from ALI +0-21d and cultures were treated with or without Lumacaftor (VX-809) from ALI +19-21d and Ivacaftor (VX-770) for ten minutes prior to fixation. PFA fixed membranes were then stained for Acetylated tubulin (green; MCCs) and E-Cadherin (red).
In some cases, such as this one, the semagacestat-induced increase in MCC/total cell ratio is further increased by Lumacaftor. […] CF patients not eligible for Trikafta respond to semagacestat alone similarly to those on corrector therapy (not shown).

In data set [2] the test system is Primary nasal epithelial cells from two CF donors (F508del homozygote). The data set is described as follows: Airway surface liquid (ASL) reabsorption. The data set is classed as cell-based, human. The conditions noted are these: 30 µl PBS, weight change over time; p = <0.001 vs control. The method, then: Primary nasal epithelial cells from two CF donors (F508del homozygote) were grown in filter inserts as in previous experiments to full differentiation. During differentiation they received treatment with vehicle control (blue), triple combination CFTR modulator (Elexcaftor/Tezacaftor/Ivacaftor; orange), the GSI semagacestat (LY-45139) (gray) or both treatments combined (yellow). Once they reached maturity, the apical surface was washed gently with PBS and then 30 µl of PBS were added to the surface. The filter inserts were then weighed on a precision scale at times 0, 12 and 24 hours after fluid addition. The change in weight over time was taken as a surrogate for fluid reabsorption.

For data set [3] the following is noted: cited from earlier work.
Data set [4] concerns HNEC cultures from a CF patient. Briefly: IL-13 induced chronic inflammation model in ALI HNEC cultures. Particulars: DAPT 1 um, semagacestat 125 nm, days 14-21. The data set is classed as cell-based, human. How it is done:
Administration of IL-13 to ALI cultures induces goblet cell hyperplasia and is a useful model of chronic inflammation. ALI HNEC cultures were prepared as described in Vladar et al. ALI cultures were treated with and without administration of Il-13 on days 7-14. DAPT (1 um), semagacestat (125 nm) or vehicle control were administered on days 14-21. PFA-fixed cultures were stained for Muc5AC (red; mucin producing secretory cells), Acetylated tubulin (green; MCCs) and E-Cadherin (blue to reveal cell boundaries).
HNEC cultures from a CF patient were treated with IL-13 from ALI+7 to 14 to induce inflammation. […] IL-13 treatment increases the percentage of mucin positive secretory cells and decreases the percentage of MCCs.

The conditions of data set [5]: oral administration; cited from earlier work.
For data set [6], the system named is CFTR. The data set is described as follows: CFTR current in Ussing chambers, GSI with or without ETI. The data set is classed as cell-based, human. The conditions noted are these: cultures from CF patients, GSI plus ETI. How it is done: Cells grown at an air liquid interface were mounted on a holding slider and inserted on an Ussing chamber for electrophysiological short circuit current (Isc) measurements. Solutions in the serosal and mucosal bath were prepared so that a chloride gradient was established between both sides. After stable baseline current recordings were obtained, agonists were added in the following order: amiloride (10 µM) to block sodium channel activity, forskolin (10 µM) to stimulate CFTR, Ivacaftor (10 µM) to potentiate CFTR activity, and CFTRinh-172 (20 µM) to block CFTR current. For each agonist signals were monitored until a plateau in current was noted before adding the next agonist. The delta-Isc in response to CFTRinh-172 was used as our main read out for CFTR-mediated chloride transport.
We directly measured CFTR activity in cultures from CF patients treated with GSI with or without well-established effective in vitro doses of Trikafta (Elexcaftor/Tezacaftor/Ivacaftor or “ETI”). Veit, G., et al., JCI (2020) 10.1172/jci.insight.139983. Measurements were performed in Ussing chambers. […] In some individual experiments, there appeared to be a synergistic effect in the combination treatment: GSI alone has no effect but the combination treatment produced a greater response than ETI alone. This effect was not consistently seen, but raised the possibility that synergy might be observed with lower ETI doses.
To examine this further, we tested MK04752 in combination with varying doses of ETI (FIG. 28).

For data set [7], the system named is primary human nasal epithelial cells (HNECs). The data set is described as follows: Semagacestat dose response on multiciliated cell (MCC) formation in HNEC ALI cultures. The data set is classed as cell-based. The method, then: Air-Liquid Interface (ALI) cultures were prepared as described in Vladar EK, Nayak JV, Milla CE, Axelrod JD. Airway epithelial homeostasis and planar cell polarity signaling depend on multiciliated cell differentiation. JCI Insight. 2016;1(13);e88027. Human nasal epithelial cells (HNECs) were generated from human sinonasal epithelial brushings or from tissue obtained from patients undergoing endoscopic sinus surgery at Stanford Hospital and cultured as described in Vladar et al.
Cultures were treated with varying doses of semagacestat. DAPT (Abcam) was used ([…]) as a positive control for GSI activity. Cultures were labeled at ALI+21d with anti-acetylated α-tubulin (green) and ECAD (red) antibodies to mark cilia and epithelial junctions.
The ratio was defined as MCC number/total luminal cells. Counting was done on one representative image from 5 culture replicates from a single donor.

The structures appear in SMILES notation.

Take `CC(C)[C@H](O)C(=O)N[C@@H](C)C(=O)N[C@@H]1C(=O)N(C)CCc2ccccc21` [semagacestat, (2S)-2-hydroxy-3-methyl-N-[(1S)-1-methyl-2-oxo-2-[[(1S)-2,3,4,5-tetrahydro-3-methyl-2-oxo-1H-3-benzazepin-1-yl]amino]ethyl]-butamide]: in data set [1], the “percentage of MCCs in the presence of Lumacaftor” value is given as “effective at increasing the percentage of MCCs”. In addition, the “ASL (fluid) reabsorption vs control” value in data set [2] is recorded as “significantly decreased reabsorption”. Besides, the adverse events entry in data set [3] (5 mg, 20 mg or 40 mg daily for 14 days) is “adverse events similar to placebo”. Also, the “subjects reporting adverse events that may have been drug related” value in data set [3] (50 mg daily dose) is listed as 2 of 7. For the same compound, in data set [4] (after IL-13 (ALI+7 to 14)), the “percentage of MCCs” value is reported as “increasing the percentage of MCCs” and the “percentage of mucin positive secretory cells” value is “decreasing the percentage of mucin positive secretory cells”. Further, the “percentage of MCCs” value in data set [4] (controls without IL-13) is “increase the percentage off MCCs”. In addition, the half-life result in data set [5] was “approximately 2.5 hours”. In addition, the “CFTR current induced by ETI” value in data set [6] is “Neither LY45139 (FIG. 26) nor MK04752 (FIG. 27) impaired the CFTR current”. Further, in data set [7] (HNECs, FIG. 1 dose response), the “semagacestat concentration at which the percentage of MCCs is at its baseline” value came out at 15.625 nM and the “semagacestat concentration at which the percentage of MCCs reaches its maximum” value was “around 125 nM”. In data set [7] (HNECs, micromolar doses), the Toxicity entry is “Toxicity is observed at micromolar doses”. Also, in data set [7] (nanomolar concentrations, labeled at ALI+21d), the “conversion to MCCs” value was “effective conversion to MCCs”. Also, the “ratio MCC number/total luminal cells” value in data set [7] (semagacestat doses from 500 nM to 31.25 nM, p <0.01 by ANOVA with Dunnett's test) is “significant increases”.

The values are drawn from patent publication US20230277550A1, “Methods for Treating Respiratory Diseases Characterized by Mucus Hypersecretion” (The Board of Trustees of the Leland Stanford Junior …, priority 2020, published 2023).
